Reference: patent US8178506B2, “Oligomeric compounds and compositions for use in modulation of small non-coding RNAs” (Regulus Therapeutics Inc., priority 2003, dated 2012)
In the oligonucleotide strings, read from the 5' end, every base follows the letter of its sugar. An asterisk marks phosphorothioate; unmarked linkages are phosphodiester. Other units and linkages are bracketed, terminal groups are in braces. A string of capitals states the bases alone. e = 2'-O-(2-methoxyethyl) (MOE); [5mC] = 5-methylcytosine

What was measured:
mir-143 binding sites = experiment: pGL3-mir-143 sensor luciferase assay in HeLa cells; type: cell-based, human; conditions: for Relative luciferase activity / luciferase expression (% lucif. only control): HeLa cells; for Relative luciferase activity: pGL3-mir-143 sensor with pCR3-pri-mir-143 (430); for luciferase expression (% lucif. only control): pGL3-mir-143 sensor
Excerpt: (§1) In one embodiment, an expression system based on the pGL3-Control (Promega Corp., Madison Wis.) vector containing a CMV promoter controlling expression of a luciferase reporter sequence was used in transient transfections of HeLa cells with plasmids expressing miRNA or pri-miRNA mimics. To assess the ability of miRNA mimics to bind and regulate the expression of the luciferase reporter gene, two reporter plasmids were constructed: 1) a synthetic DNA fragment comprising two sites perfectly complementary to mir-143 were inserted into the pGL3-Control luciferase reporter vector, to create the pGL3-mir-143 sensor plasmid, and 2) a DNA fragment comprising the 3′-UTR of the LIM domain only 4 (LMO4) gene (predicted to be regulated by mir-143) was inserted into pGL3-Control to create pGL3-LMO4; this fragment was PCR-amplified using a primer beginning at position 1261 of the LMO4 sequence (GenBank Accession NM_006769.2, incorporated herein as SEQ ID: 809) and the downstream primer hybridizing to the poly-A tail. In each of these plasmids, the target site was placed downstream of the luciferase coding sequence and upstream of the polyadenylation signal in the 3′-UTR of the luciferase reporter vector. The unmodified pGL3-Control luciferase reporter vector was used as a control.
(§2) HeLa cells were routinely cultured and passaged as described, and on the day before transfection with expression or reporter plasmids, the HeLa cells were seeded onto 24-well plates 50,000 cells/well. Cells were transfected according to standard published procedures with various combinations of plasmids using 2 μg Lipofectamine™ 2000 Reagent (Invitrogen) per μg of plasmid DNA, or, when transfecting oligomeric compounds, 1.25 μg of Lipofectamine™ 2000 Reagent per 100 nM oligonucleotide or double-stranded RNA. The luciferase signal in each well was normalized to the Renilla luciferase (RL) activity produced from a co-transfected plasmid, pRL-CMV, which was transfected at 0.5 μg per well. Cells were treated at various dosages (4 nM, 20 nM, and 100 nM) with the following oligomeric compound mimics: 1) “ds-mir-143,” 2) “ds-Control,” 3) “pCR3-pri-mir-143,” or 4) “pri-mir-control,” as described supra. In accordance with methods described in Example 12, supra, a luciferase assay was performed 48-hours after transfection. Briefly, cells were lysed in passive lysis buffer (PLB; Promega), and 20 ul of the lysate was then assayed for RL activity using a Dual Luciferase Assay kit (Promega) according to the manufacturer's protocol. The results below are an average of three trials and are presented as percent pGL3-Control luciferase expression normalized to pRL-CMV expression (RL).
In another embodiment, HeLa cells were transfected with 0.03 μg pGL3-mir-143 sensor plasmid and 0.01 μg pRL-CMV plasmid, and, in addition, (except those samples described below as “without mir-143 pri-miRNA,”) were also transfected with 0.01 μg of an expression plasmid designed to express a mir-143 pri-miRNA mimic comprising a larger 430-nt fragment of the mir-143 primary miRNA transcript, referred to as “pCR3-pri-mir-143 (430)” ([…]; SEQ ID NO: 871). […] To further evaluate the ability of the mir-143 pri-miRNA mimic to inhibit luciferase activity from the sensor plasmid, and to assess the ability of oligomeric compounds to interfere with the inhibition of pGL3-mir-143 sensor luciferase expression by the mir-143 pri-miRNA mimic, pGL3-mir-143 sensor-expressing HeLa cells treated with pCR3-pri-mir-143 (430) were additionally treated with varying concentrations (0-, 6.7- or 20 nM) of the following oligomeric compounds: 1) ISIS Number 327901 (SEQ ID NO: 319), a uniform 2′-MOE oligomeric compound targeting mir-143; 2) ISIS Number 342673 (SEQ ID NO: 758), a uniform 2′-MOE scrambled control; or 3) ISIS Number 327924 (SEQ ID NO: 342) targeting an unrelated miRNA (mir-129-2). […]

[1] = system: pGL3-Control luciferase reporter; experiment: pGL3-Control luciferase assay in HeLa cells (reporter without miRNA binding site); type: cell-based, human; conditions: for luciferase expression: 24 hours; for luciferase expression (% lucif. only control): pGL3-Control, 48 hours
Excerpt: as §1, §2
An expression system based on the pGL3-Control (Promega Corp., Madison Wis.) reporter vector and comprising predicted miRNA binding sites was used in transient transfections of HeLa cells with plasmids expressing oligomeric compounds mimicking miRNAs, pre-miRNAs or pri-miRNAs in order to assess the ability of these miRNA mimics to bind and regulate the expression of the luciferase reporter. The effect of increasing the copy number of the miRNA-binding site in the target was also tested by including multiple binding sites in artificial reporter constructs. It is understood that the presence of multiple miRNA-binding sites in a target can include binding sites for different miRNAs.
HeLa cells were routinely cultured and passaged as described. In some embodiments, HeLa cells were transfected with 0.05 μg of the relevant pGL3-sensor plasmid and 0.01 μg pRL-CMV plasmid. Additionally, in some embodiments, cells were treated at various dosages (11 nM, 33 nM, and 100 nM) with the following oligomeric compound mimics: 1) ds-mir-143, or 2) ds-Control as described. In accordance with methods described in Example 12, a luciferase assay was performed 24-hours after transfection. The results, shown in Tables 40 and 41, are an average of three trials. […]

## 327924 (antisense eG*e[5mC]*eA*eA*eG*e[5mC]*e[5mC]*e[5mC]*eA*eG*eA*e[5mC]*e[5mC]*eG*e[5mC]*eA*eA*eA*eA*eA*eG) [compound 327924]
mir-143 binding sites; 6.7 nM
  Relative luciferase activity: 0.8
mir-143 binding sites; 20 nM
  Relative luciferase activity: 1.2

## ds-mir-143: double-stranded RNA of ISIS 342199 hybridized to its perfect complement ISIS 342200 (sense UGAGAUGAAGCACUGUAGCUCA; antisense UGAGCUACAGUGCUUCAUCUCA; RNA, backbone not given here)
[1]; Table 40, pGL3-Control, 11 nM
  luciferase expression: 90.7 percent untreated control
[1]; Table 40, pGL3-Control, 33 nM
  luciferase expression: 94.2 percent untreated control
[1]; Table 40, pGL3-Control, 100 nM
  luciferase expression: 72.5 percent untreated control
[1]; Table 41, pGL3-Control, 11 nM
  luciferase expression: 110.2 percent untreated control
[1]; Table 41, pGL3-Control, 33 nM
  luciferase expression: 124.3 percent untreated control
[1]; Table 41, pGL3-Control, 100 nM
  luciferase expression: 92.3 percent untreated control
[1]; 4 nM
  luciferase expression (% lucif. only control): 101.5 % lucif. only control
[1]; 20 nM
  luciferase expression (% lucif. only control): 123.8 % lucif. only control
[1]; 100 nM
  luciferase expression (% lucif. only control): 131.8 % lucif. only control
mir-143 binding sites; HeLa, 4 nM, 20 nM and 100 nM, 48 hours
  luciferase activity from the pGL3-mir-143 sensor plasmid: inhibited luciferase activity from the pGL3-mir-143 sensor plasmid in a dose-dependent manner
mir-143 binding sites; 4 nM, 48 hours
  luciferase expression (% lucif. only control): 14.5 % lucif. only control
mir-143 binding sites; 20 nM, 48 hours
  luciferase expression (% lucif. only control): 8.0 % lucif. only control
mir-143 binding sites; 100 nM, 48 hours
  luciferase expression (% lucif. only control): 7.1 % lucif. only control
